# In patent US6710168B1, “Glycopeptide antibiotics, combinatorial libraries of glycopeptide antibiotics and methods of producing same” (The Trustees of the University of Princeton, priority 1999, dated 2004):
# Key:
# Format in all cases: cell-based
# [1] = test system: Enterococcus faecium CL5137, VanA; assay: MIC susceptibility test; conditions: Enterococcus faecium CL5137, VanA; for MIC: read-out: MIC CL5137
# [2] = test system: Enterococcus faecalis CL5244, VanB; assay: MIC susceptibility test; conditions: Enterococcus faecalis CL5244, VanB; for MIC: read-out: MIC CL5244
# How it was run: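 MTT-based broth microdilution in cation-adjusted Mueller-Hinton broth; two-fold 12-step dilutions […], inoculum 10^6 CFU/mL, 37° C for 24 h.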
# [3] = test system: Staphylococcus aureus (ATCC 29213); assay: MIC susceptibility test, microdilution with MTT readout; conditions: Staphylococcus aureus ATCC29213; for MIC: read-out: MIC SA
# How it was run: (§1)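 Broth microdilution in cation-adjusted Mueller-Hinton broth, 12-step two-fold series from 5 μg/mL to […], mixed 1:1 with 10^6 CFU/mL cell suspension and incubated 24 h at 37 °C. MTT (1 mg/mL solution) is then added for 30 min (S. aureus, MRSA) or 2 h (E. faecalis strains). MIC = lowest concentration inhibiting growth.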
# [4] = test system: Methicillin resistant Staphylococcus aureus (ATCC 33591); assay: as above; conditions: Staphylococcus aureus ATCC3359, Methicillin resistance; for MIC: ATCC 3359 / ATCC 33591 / MRSA, read-out: MIC MRSA
# How it was run: as §1
# [5] = test system: Bacillus cereus (ATCC 11778); assay: as above; conditions: for MIC BC: Bacillus ceres ATCC11778; for MIC: Bacillus cereus, ATCC11778, read-out: MIC BC
# How it was run: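 Bacillus cereus ATCC® 11778 susceptibility was measured by broth microdilution in 96-well microplates using Cation Adjusted Mueller-Hinton broth. Samples were diluted two-fold from 5 μg/mL over 12 steps. Each well combined 100 μL of cell suspension (10^6 CFU/mL) with 100 μL of antibiotic solution and was incubated at 37° C. for 24 h. Then 50 μL of MTT (1 mg/mL) was added for 30 min, and MIC (μg/mL) was read as the lowest concentration inhibiting growth.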
# [6] = test system: Enterococcus faecalis (ATCC 29212); assay: as above; conditions: Enterococcus faecalis ATCC29212; for MIC: read-out: MIC EF
# How it was run: as §1
# [7] = test system: gentamicin, streptmycin, vancomycin resistant Enterococcus faecalis (ATCC 51299); assay: microbe, parasite or virus in culture; conditions: for MIC VREF: Enterococcus faecalis ATCC51299, vancomycin resistance; for MIC: Enterococcus faecalis, ATCC51299, read-out: MIC VREF
# How it was run: as §1
Structure (SMILES),MIC CL5137 [1],MIC CL5244 [2] [µg/mL],MIC SA [3] [µg/mL],MIC MRSA [4] [µg/mL],MIC BC [5] [µg/mL],MIC EF [6] [µg/mL],MIC VREF [7] [µg/mL],MIC [1] [µg/mL],MIC [2] [µg/mL],MIC [3] [µg/mL],MIC [4] [µg/mL],MIC [5] [µg/mL],MIC [6] [µg/mL],MIC [7] [µg/mL]
"CNC(CC(C)C)C(=O)NC1C(=O)NC(CC(N)=O)C(=O)NC2C(=O)NC3C(=O)NC(C(=O)NC(C(=O)O)c4cc(O)cc(O)c4-c4cc3ccc4O)C(O)c3ccc(c(Cl)c3)Oc3cc2cc(c3OC2OC(CI)C(O)C(O)C2OC2CC(C)(N)C(O)C(C)O2)Oc2ccc(cc2Cl)C1O (centres unmarked) [LXX, Glucose-C6-iodo Vancomycin]",50< μg/mL,6.3,0.63,1.3,0.63,0.63,1.9,–,–,–,–,–,–,–
"CN[C@@H](CC(C)C)C(=O)N[C@H]1C(=O)N[C@@H](CC(N)=O)C(=O)N[C@H]2C(=O)NC3C(=O)N[C@H](C(=O)N[C@@H](C(=O)O)c4cc(O)cc(O)c4-c4cc3ccc4O)[C@H](O)c3ccc(c(Cl)c3)Oc3cc2cc(c3OC2OC(CNC(=O)C(F)(F)F)C(O)C(O)C2OC2CC(C)(N)C(O)C(C)O2)Oc2ccc(cc2Cl)[C@H]1O (some centres unmarked) [XL, Glucose-C6-trifluoroacetamide Vancomycin]",–,–,–,–,–,–,–,> 50,25,0.48,1,1.3,1.3,5
CN[C@@H](CC(C)C)C(=O)N[C@H]1C(=O)N[C@@H](CC(N)=O)C(=O)N[C@H]2C(=O)NC3C(=O)N[C@H](C(=O)N[C@@H](C(=O)O)c4cc(O)cc(O)c4-c4cc3ccc4O)[C@H](O)c3ccc(c(Cl)c3)Oc3cc2cc(c3OC2OC(CSc3nccc(C(F)(F)F)n3)C(O)C(O)C2OC2CC(C)(N)C(O)C(C)O2)Oc2ccc(cc2Cl)[C@H]1O (some centres unmarked) [LX],–,–,–,–,–,–,–,> 50,> 50,5,5,5,2.5,2.5
"CCCCCCCCCCNC1(C)CC(OC2C(Oc3c4cc5cc3Oc3ccc(cc3Cl)[C@@H](O)[C@@H](NC(=O)[C@H](CC(C)C)NC)C(=O)N[C@@H](CC(N)=O)C(=O)N[C@H]5C(=O)NC3C(=O)N[C@H](C(=O)N[C@@H](C(=O)O)c5cc(O)cc(O)c5-c5cc3ccc5O)[C@H](O)c3ccc(c(Cl)c3)O4)OC(CSc3nc(-c4ccccc4)c(-c4ccccc4)o3)C(O)C2O)OC(C)C1O (some centres unmarked) [LXXXII, N-Decylvancosamine-glucose-C6-2-thio-4,5-diphenyloxazole Vancomycin]",–,–,–,–,–,–,–,> 50,13,> 5,> 5,> 5,> 5,> 5
"CN[C@@H](CC(C)C)C(=O)N[C@H]1C(=O)N[C@@H](CC(N)=O)C(=O)N[C@H]2C(=O)NC3C(=O)N[C@H](C(=O)N[C@@H](C(=O)O)c4cc(O)cc(O)c4-c4cc3ccc4O)[C@H](O)c3ccc(c(Cl)c3)Oc3cc2cc(c3OC2OC(CSc3nnc(NN)n3N)C(O)C(O)C2OC2CC(C)(N)C(O)C(C)O2)Oc2ccc(cc2Cl)[C@H]1O (some centres unmarked) [LXXVII, Glucose-C6-5-thio-4-amino-3-hydrazino-1,2,4-triazole Vancomycin]",–,–,–,–,–,–,–,63,3.2,1.3,1.3,0.63,0.63,1.3
"CNC(CC(C)C)C(=O)NC1C(=O)NC(CC(N)=O)C(=O)NC2C(=O)NC3C(=O)NC(C(=O)NC(C(=O)O)c4cc(O)cc(O)c4-c4cc3ccc4O)C(O)c3ccc(c(Cl)c3)Oc3cc2cc(c3OC2OC(Cn3ccnc3)C(O)C(O)C2OC2CC(C)(N)C(O)C(C)O2)Oc2ccc(cc2Cl)C1O (centres unmarked) [LVII, Glucose-C6-imidazole Vancomycin]",50< μg/mL,50,1.3,1.9,2.5,2.5,5.0,–,–,–,–,–,–,–
"CN[C@@H](CC(C)C)C(=O)N[C@H]1C(=O)N[C@@H](CC(N)=O)C(=O)N[C@H]2C(=O)NC3C(=O)N[C@H](C(=O)N[C@@H](C(=O)O)c4cc(O)cc(O)c4-c4cc3ccc4O)[C@H](O)c3ccc(c(Cl)c3)Oc3cc2cc(c3OC2OC(CN=[N+]=[N-])C(O)C(O)C2OC2CC(C)(NCc3ccc(-c4ccc(Cl)cc4)cc3)C(O)C(C)O2)Oc2ccc(cc2Cl)[C@H]1O (some centres unmarked) [LXXIV, N-4-(4-Chlorophenyl)benzylvancosamine-glucose-C6-azide Vancomycin]",–,–,–,–,–,–,–,13,0.3,1,0.48,0.32,0.16,0.16
"CN[C@@H](CC(C)C)C(=O)N[C@H]1C(=O)N[C@@H](CC(N)=O)C(=O)N[C@H]2C(=O)NC3C(=O)N[C@H](C(=O)N[C@@H](C(=O)O)c4cc(O)cc(O)c4-c4cc3ccc4O)[C@H](O)c3ccc(c(Cl)c3)Oc3cc2cc(c3OC2OC(CSc3nc(-c4ccccc4)c(-c4ccccc4)o3)C(O)C(O)C2OC2CC(C)(NCc3ccc(-c4ccc(Cl)cc4)cc3)C(O)C(C)O2)Oc2ccc(cc2Cl)[C@H]1O (some centres unmarked) [LXXXVII, N-4-(4-Chlorophenyl)benzylvancosamine-glucose-C6-2-thio-4,5-diphenyloxazole Vancomycin]",–,–,–,–,–,–,–,50,10,> 5,> 5,> 5,5,5
"CN[C@@H](CC(C)C)C(=O)N[C@H]1C(=O)N[C@@H](CC(N)=O)C(=O)N[C@H]2C(=O)NC3C(=O)N[C@H](C(=O)N[C@@H](C(=O)O)c4cc(O)cc(O)c4-c4cc3ccc4O)[C@H](O)c3ccc(c(Cl)c3)Oc3cc2cc(c3OC2OC(CSc3nc4cc(Cl)ccc4s3)C(O)C(O)C2OC2CC(C)(N)C(O)C(C)O2)Oc2ccc(cc2Cl)[C@H]1O (some centres unmarked) [LXVI, Glucose-C6-2-thio-5-chlorobenzothiazole Vancomycin]",–,–,–,–,–,–,–,50,0.4,0.63,1.3,0.16,0.24,0.32
"CN[C@@H](CC(C)C)C(=O)N[C@H]1C(=O)N[C@@H](CC(N)=O)C(=O)N[C@H]2C(=O)NC3C(=O)N[C@H](C(=O)N[C@@H](C(=O)O)c4cc(O)cc(O)c4-c4cc3ccc4O)[C@H](O)c3ccc(c(Cl)c3)Oc3cc2cc(c3OC2OC(CSc3nnnn3C)C(O)C(O)C2OC2CC(C)(N)C(O)C(C)O2)Oc2ccc(cc2Cl)[C@H]1O (some centres unmarked) [LVIII, Glucose-C6-5-thio-1-methyl-tetrazole Vancomycin]",–,–,–,–,–,–,–,> 50,50,1.9,2.5,1.3,2.5,5
"CN[C@@H](CC(C)C)C(=O)N[C@H]1C(=O)N[C@@H](CC(N)=O)C(=O)N[C@H]2C(=O)NC3C(=O)N[C@H](C(=O)N[C@@H](C(=O)O)c4cc(O)cc(O)c4-c4cc3ccc4O)[C@H](O)c3ccc(c(Cl)c3)Oc3cc2cc(c3OC2OC(CN)C(O)C(O)C2OC2CC(C)(NCc3ccc(-c4ccc(Cl)cc4)cc3)C(O)C(C)O2)Oc2ccc(cc2Cl)[C@H]1O (some centres unmarked) [LXXV, N-4-(4-Chlorophenyl)benzylvancosamine-glucose-C6-amine Vancomycin]",–,–,–,–,–,–,–,2,≤ 0.03,≤ 0.03,≤ 0.03,0.16,≤ 0.03,0.63
